This note sets out measurements from the NIST ThermoML archive (doi:10.1016/j.jct.2009.03.007).

± gives the expanded uncertainty stated by the source.

For series [1] the following is noted: 298.15 K; Liquid; Calvet microcalorimetry.
Series [2] can be described thus: molar enthalpy of vaporization or sublimation. To be noted: 298.15 K; Liquid; Calvet microcalorimetry.

With `COC(=O)c1cccs1` [methyl 2-thiophenecarboxylate], the “molar enthalpy of vaporization” value in series [1] came out at 13.8 ± 0.574 kcal/mol.

Take `CCOC(=O)Cc1cccs1` [ethyl 2-thiopheneacetate]: the molar enthalpy in series [2] came to 14.8 ± 0.621 kcal/mol.

In the case of `CCOC(=O)c1cccs1` [ethyl 2-thiophenecarboxylate], the “molar enthalpy of vaporization” value in series [1] is 13.5 ± 0.621 kcal/mol.

`CCOC(=O)Cc1ccsc1` [ethyl 3-thiopheneacetate]: the molar enthalpy in series [2] is 15.1 ± 0.621 kcal/mol.
